Values quoted from earlier work, collected in patent US11780971B2, “Active yarns and textiles for the stabilization and controlled release of active compounds” (priority 2018, dated 2023).
Where “and” joins values, the source holds several entries; their conditions need not be identical. Equal entries are not always repeated.

Test system: Staphylococcus aureus strain

## C=CCc1ccc(O)c(OC)c1 [eugenol]
  Minimum Inhibitory Concentration (MIC): 625 µg/mL and 662 µg/mL
